Test results as given in US20250235543A1, “MODIFIED PROTEINS AND PROTEIN DEGRADERS” (Cullgen (Shanghai), Inc., priority 2021, published 2025).

How the values were obtained:
Format in all cases: cell-based
[1] = test system: T47D palbo-resistant cells; assay: Cell viability in T47D palbo-resistant model; settings: 10-point serial dilution, 6 days
Experimental: T47D cells were cultured long-term to resistance in the presence of 1 μM Palbocicilib. Palbo resistance was determined by CellTiter-Lumi cell viability assay. T47D parental or palbo-resistant cells were treated with palbociclib, or heterobifunctional compound CPD-343 following a 10-point serial dilution for 6 days.
Calu-1, T47D, MCF7, NCI-H522, BT-549, MDA-MB-157, MDA-MB-453, MDA-MB-468, Hs578T, KURAMOCHI, OVCAR3, MIA PaCa-2, Cal-62, LNCaP, NCI-H1703, MM.1R, Daudi, SU-DHL-4, MDA-MB-231 and other cells were cultured at 37° C. with 5% CO2 in RPMI 1640 or DMEM medium supplemented with 10% fetal bovine serum. Cells were authenticated using the short tandem repeat (STR) assays. Mycoplasma test results were negative. Cell transfection was performed using PEI or Lipofectamine 2000 (Invitrogen) following the manufacturer's instructions. […]
Cells were seeded at a density of 2,000-5,000 cells per well in 96-well assay plates and treated with test compounds following a 10-point serial dilution for 3-6 days. Cell viability was determined using the CellTiter-Lumi assay kit according to the manufacturer's instructions. The dose-response curves were determined and IC50 values were calculated using the GraphPad Prism software following a nonlinear regression (least squares fit) method. […]

CDK4 = target: T1, CDK4 (Homo sapiens, UniProt P11802); assay: CDK4 percentage degradation in Calu-1 cells (immunoblotting); settings: Calu-1 cells, 200 nM, 16 hours; read-out: CDK4 Degradation (200 nM)
T1 construct: endogenous in cells; host or cells: Calu-1
T1 sequence (P11802 2-303 limits assumed): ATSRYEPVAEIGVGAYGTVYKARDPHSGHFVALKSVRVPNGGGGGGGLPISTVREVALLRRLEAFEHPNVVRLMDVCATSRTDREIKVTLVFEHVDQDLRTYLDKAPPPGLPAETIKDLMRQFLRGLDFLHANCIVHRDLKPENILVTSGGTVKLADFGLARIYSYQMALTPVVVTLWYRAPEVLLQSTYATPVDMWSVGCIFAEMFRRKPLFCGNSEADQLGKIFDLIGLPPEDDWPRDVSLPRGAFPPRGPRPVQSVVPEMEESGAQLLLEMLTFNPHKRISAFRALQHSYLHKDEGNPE
T1 sequence (P24385 whole entry partner): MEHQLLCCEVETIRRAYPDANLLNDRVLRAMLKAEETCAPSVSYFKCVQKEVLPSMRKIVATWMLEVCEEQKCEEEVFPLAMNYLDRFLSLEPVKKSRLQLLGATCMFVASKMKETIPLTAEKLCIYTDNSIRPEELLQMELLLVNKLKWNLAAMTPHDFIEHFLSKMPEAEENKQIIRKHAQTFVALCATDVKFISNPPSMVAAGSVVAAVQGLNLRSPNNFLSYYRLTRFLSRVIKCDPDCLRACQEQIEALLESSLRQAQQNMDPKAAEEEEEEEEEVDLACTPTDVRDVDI
T1 sequence (Q16531 2-1140 limits assumed, further chain): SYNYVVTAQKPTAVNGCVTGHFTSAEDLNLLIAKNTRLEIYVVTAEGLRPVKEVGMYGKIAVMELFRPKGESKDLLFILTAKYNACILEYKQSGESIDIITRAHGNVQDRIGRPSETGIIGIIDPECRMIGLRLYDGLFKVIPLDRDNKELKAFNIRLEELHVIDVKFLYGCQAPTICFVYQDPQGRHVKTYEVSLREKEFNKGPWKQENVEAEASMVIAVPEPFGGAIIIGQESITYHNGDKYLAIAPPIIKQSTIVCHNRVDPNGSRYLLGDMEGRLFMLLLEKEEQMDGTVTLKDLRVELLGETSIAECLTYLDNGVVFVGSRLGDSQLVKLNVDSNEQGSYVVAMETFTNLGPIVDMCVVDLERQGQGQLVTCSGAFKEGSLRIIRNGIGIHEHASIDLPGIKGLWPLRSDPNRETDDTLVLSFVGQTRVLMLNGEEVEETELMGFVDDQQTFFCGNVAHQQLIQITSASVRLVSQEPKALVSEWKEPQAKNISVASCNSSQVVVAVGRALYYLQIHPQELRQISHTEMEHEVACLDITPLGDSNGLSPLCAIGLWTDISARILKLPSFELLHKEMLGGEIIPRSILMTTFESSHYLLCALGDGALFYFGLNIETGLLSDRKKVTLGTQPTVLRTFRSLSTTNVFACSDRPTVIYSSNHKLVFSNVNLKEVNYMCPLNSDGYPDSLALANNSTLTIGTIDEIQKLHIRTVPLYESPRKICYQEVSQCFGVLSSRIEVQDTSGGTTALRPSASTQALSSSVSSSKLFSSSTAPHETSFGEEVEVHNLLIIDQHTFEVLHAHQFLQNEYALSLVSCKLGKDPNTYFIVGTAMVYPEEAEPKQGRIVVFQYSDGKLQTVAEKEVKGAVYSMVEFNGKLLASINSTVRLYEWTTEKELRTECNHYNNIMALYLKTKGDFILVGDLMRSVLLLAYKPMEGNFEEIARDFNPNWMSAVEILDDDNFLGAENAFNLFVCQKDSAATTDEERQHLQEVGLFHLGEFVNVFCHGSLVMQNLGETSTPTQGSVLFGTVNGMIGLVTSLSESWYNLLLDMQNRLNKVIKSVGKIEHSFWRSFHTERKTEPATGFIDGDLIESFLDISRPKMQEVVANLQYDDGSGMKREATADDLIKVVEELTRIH
Summary of the method: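 Cultured cells were rinsed once in cold PBS and lysed in cold RIPA buffer containing protease and phosphatase inhibitors, with gentle agitation at 4° C. for 30 min. Lysates were centrifuged at 13,000 rpm for 10 min at 4° C., and protein was quantified by BCA. Samples were then separated by SDS-PAGE, detected with ECL, and the CDK4 bands quantified in Image Lab.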

[2] = test system: T47D palbo-resistant model; assay: CellTiter-Lumi cell viability in T47D palbociclib-resistant model; settings: 6 days; resistance acquired under 1 μM palbociclib
Experimental: Furthermore, we developed one ER^+ breast cancer T47D model with acquired resistance after long period of treatment with 1 μM palbociclib (over IC90). […] Palbo resistance was determined by CellTiter-Lumi cell viability assay.

T47D cells [3] = assay: Flow cytometric analysis of Annexin V/7-AAD stained T47D cells; settings: 6 days
Experimental: ER^+ breast cancer T47D cells were treated with DMSO, palbociclib, heterobifunctional compound CPD-343, or negative control compound CPD-380 for 6 days at doses approximating IC50 and IC90 concentrations determined in FIGS. 10A and 13. Cells were harvested by trypsinization, staining was carried out using the Annexin V Apoptosis Detection Kit. The percentages of early apoptotic (Annexin V^+7-AAD^−, lower right quadrant), late apoptotic (Annexin V^+7-AAD^+, upper right quadrant) and necrotic cells (Annexin V-7-AAD^+, upper left quadrant) are indicated on dot plots. […] Furthermore, we developed one ER^+ breast cancer T47D model with acquired resistance after long period of treatment with 1 μM palbociclib (over IC90). Cells were deemed resistant when growing in the presence of palbo at the same rate as parental cells. Palbo resistance was determined by CellTiter-Lumi cell viability assay.

T47D cells [4] = assay: Annexin V apoptosis flow cytometry in T47D cells; settings: 6 days
Experimental: T47D cells were treated with DMSO, palbociclib, heterobifunctional compound CPD-343, or negative control compound CPD-380 for 6 days at doses approximating IC50 and IC90 concentrations as indicated. Cells were harvested by trypsinization, staining was carried out using the Annexin V Apoptosis Detection Kit.
Assays were performed on the CytoFLEX Cytometer (Beckman Coulter), and data were analyzed using CytExpert software. For cell death and apoptosis analysis, cells were harvested by trypsinization, staining was carried out using the Annexin V Apoptosis Detection Kit (BD Biosciences). Briefly, cells were resuspended in 1× binding buffer and incubated with fluorochrome-conjugated Annexin V and 7-AAD for 15 min in darkness at room temperature.

cyclin D1 = assay: Cyclin D1 percentage degradation in Calu-1 cells (immunoblotting); settings: 200 nM, 16 hours
Summary of the method: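 Cells were rinsed once in cold PBS and lysed in cold RIPA buffer containing protease and phosphatase inhibitors, with gentle agitation at 4° C. for 30 min. Lysates were spun at 13,000 rpm for 10 min at 4° C., protein was measured by BCA, and samples were boiled in Laemmli buffer at 99° C. for 5 min before SDS-PAGE immunoblotting.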

BRD4 [5] = target: T2, BRD4 (Homo sapiens, UniProt O60885); assay: Immunoblotting of BRD4 protein levels in multiple cell lines; settings: Daudi, SU-DHL-4, or MDA-MB-231 cells, 8 hours
T2 construct: endogenous in cells; host or cells: Daudi, SU-DHL-4, MDA-MB-231
Experimental: Daudi, SU-DHL-4, or MDA-MB-231 cells were treated with CPD-253 at indicated concentrations for 8 hours.
Cultured cells were washed with cold PBS once and lysed in cold RIPA buffer supplemented with protease inhibitors and phosphatase inhibitors (Beyotime Biotechnology). The solutions were then incubated at 4° C. for 30 min with gentle agitation to fully lysed cells. Cell lysates were centrifuged at 13,000 rpm for 10 min at 4° C. and pellets were discarded. Total protein concentrations in the lysates were determined following BCA assays (Beyotime Biotechnology). Cell lysates were mixed with Laemmli loading buffer and heated at 99° C. for 5 min. Proteins were resolved on SDS-PAGE and visualized using Western ECL Substrate kits on a ChemiDoc MP Imaging system (Bio-Rad). Protein bands were quantitated using the Image Lab software provided by Bio-Rad.

BRD4 [6] = target: T2, BRD4; assay: Immunoblot of BRD4 protein levels in Daudi, SU-DHL-4 or MDA-MB-231 cells; settings: SU-DHL-4 or MDA-MB-231 cell lines, 8 hours, dose range
Excerpt: Additional exemplary heterobifunctional compounds were designed to modulate the protein levels of either P300/CBP, or BRD4, and characterized in multiple cell lines. […] Taken together, DDB1 ligands conjugating with different target ligands may modulate the cellular target protein levels of cyclin D, CDK4/6, P300/CBP and BRD4.

Row | inhibition at 0.2 µM (CDK4) | reduction of BRD4 protein levels (BRD4 [6]) | Structure (SMILES) | cell viability in T47D palbo-resistant model [1] | activity in T47D palbo-resistant model compared to parental cells [2] | Annexin V+ population (T47D cells [3]; 10 nM) | Annexin V+ population (T47D cells [3]; 200 nM) | Annexin V+ population (T47D cells [4]; 10 nM) | Annexin V+ population (T47D cells [4]; 200 nM) | CyclinD1 Degradation (200 nM) (cyclin D1) | BRD4 protein levels (BRD4 [5])
1 | > 80% |  | CNc1ccc(C(=O)Nc2ccc(OC)nn2)c(NC(=O)CCOCCOCCNC(=O)CN2CCN(c3ccc(Nc4ncc5c(C)c(C(C)=O)c(=O)n(C6CCCC6)c5n4)nc3)CC2)c1 [CPD-343, 2-(3-(2-(2-(2-(4-(6-((6-Acetyl-8-cyclopentyl-5-methyl-7-oxo-7,8-dihydropyrido[2,3-d]pyrimidin-2-yl)amino)pyridin-3-yl)piperazin-1-yl)acetamido)ethoxy)ethoxy)propanamido)-N-(6-methoxypyridazin-3-yl)-4-(methylamino)benzamide] | remained effective in T47D palbo-resistant model | remain effective | 26.9% | 52.6% | 26.9% | 52.6% | A (protein percentage degradation >=80%) | 
2 |  | dramatically reduce | Cc1nc(NC(=O)c2ccccc2NC(=O)CCCCCCCCCCCNCCNC(=O)C[C@@H]2N=C(c3ccc(Cl)cc3)c3c(sc(C)c3C)-n3c(C)nnc32)sc1C [CPD-253, (S)-2-(12-((2-(2-(4-(4-Chlorophenyl)-2,3,9-trimethyl-6H-thieno[3,2-f][1,2,4]triazolo[4,3-a][1,4]diazepin-6-yl)acetamido)ethyl)amino)dodecanamido)-N-(4,5-dimethylthiazol-2-yl)benzamide] |  |  |  |  |  |  |  | reduced BRD4 protein levels in a concentration-dependent manner
